Laboratory results published in patent US8288512B2, “Use of amphiphilic self-assembling proteins for formulating poorly water-soluble effect substances” (BASF SE, priority 2006, dated 2012).
≈ marks a conversion by molar mass, not a printed value. Where two headings read alike, the source gives them in different places.

What was measured:
[1] = cited from earlier work
proteinase K = proteinase K (Parengyodontium album, UniProt P06873); test: Release of metazachlor from C16 protein microbeads by proteinase K digestion
Experimental: The lyophilized metazachlor-comprising C16 protein microbeads were proteolytically digested in 1 ml of 10 mM Tris buffer; 0.1% SDS; 100 μg of proteinase K for 1 h at 37° C. The active substance crystals remaining from the mixture after centrifugation for 10 minutes (20000×g) were dissolved in 500 μl of isopropanol. About 11% of the amount of metazachlor used was detected in the supernatant of the protease digestion. The active substance crystals redissolved in isopropanol constituted about 35% of the amount of metazachlor used.
(§1) Analysis of the Active Substance Distribution (Photometric Determination at λ=215 nm)

[2] = Packing of metazachlor in C16 protein microbeads, active substance distribution (photometric at 215 nm); type: physicochemical
Experimental: 500 μl of a 10 mg/ml C16 protein-comprising potassium phosphate solution (5 mM, pH 8.0) were mixed with 100 μl of a metazachlor solution (50 mg/ml in isopropanol). C16 Protein microbead formation was induced by adding 1 ml of 1 M potassium phosphate buffer (pH 8.0). The mixture was incubated for 1 h at room temperature and then centrifuged for 10 min at 20000×g. The pellet was washed twice with 5 ml of double-distilled H2O and then lyophilized. An identical mixture without C16 protein was carried out as control.
In each case, about 20% of the active substance were present in the wash supernatants.
as §1

[3] = of the amount of metazachlor used
[4] = proteinase K, 1 h, 37° C., 5.0 mg metazachlor used

Chain of proteinase K (P06873 106-384): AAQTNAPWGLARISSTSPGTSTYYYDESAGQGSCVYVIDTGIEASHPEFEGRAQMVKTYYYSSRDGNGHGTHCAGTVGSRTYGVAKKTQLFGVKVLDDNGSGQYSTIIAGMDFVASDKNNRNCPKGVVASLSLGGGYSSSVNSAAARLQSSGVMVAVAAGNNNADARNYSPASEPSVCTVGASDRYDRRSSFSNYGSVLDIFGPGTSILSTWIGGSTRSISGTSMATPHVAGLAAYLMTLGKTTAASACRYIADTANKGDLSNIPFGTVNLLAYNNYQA

Clc1ccccc1C(c1ccccc1)(c1ccccc1)n1ccnc1 [Clotrimazole]
Solubility in water ([1]; 25° C.): <10 µg/mL

Cc1cccc(C)c1N(Cn1cccn1)C(=O)CCl [metazachlor]
Active substance crystals redissolved in isopropanol (proteinase K; [3]): about 35% | Metazachlor detected in the supernatant of the protease digestion (proteinase K; [3]): About 11% | Amount of substance, pellet after digestion in isopropanol (proteinase K; [4]): 1.74 mg | Amount of substance, supernatant after protease digestion (proteinase K; [4]): 0.55 mg | Crystal formation after potassium phosphate precipitation ([2]; mixture with C16 protein): no metazachlor crystals were visible | Crystal formation after potassium phosphate precipitation ([2]; mixture without C16 protein): large active substance crystals were formed

NC(=O)N1c2ccccc2C=Cc2ccccc21 [Carbamazipine]
Solubility in water ([1]; RT): 945.1 µg/mL (≈ 4000 µM)

B1: C16 protein: synthetic spider silk protein with the polypeptide sequence shown in SEQ ID NO: 1 (protein)
chain: MASMTGGQQMGRGSMGSSAAAAAAAASGPGGYGPENQGPSGPGGYGPGGPGSSAAAAAAAASGPGGYGPENQGPSGPGGYGPGGPGSSAAAAAAAASGPGGYGPENQGPSGPGGYGPGGPGSSAAAAAAAASGPGGYGPENQGPSGPGGYGPGGPGSSAAAAAAAASGPGGYGPENQGPSGPGGYGPGGPGSSAAAAAAAASGPGGYGPENQGPSGPGGYGPGGPGSSAAAAAAAASGPGGYGPENQGPSGPGGYGPGGPGSSAAAAAAAASGPGGYGPENQGPSGPGGYGPGGPGSSAAAAAAAASGPGGYGPENQGPSGPGGYGPGGPGSSAAAAAAAASGPGGYGPENQGPSGPGGYGPGGPGSSAAAAAAAASGPGGYGPENQGPSGPGGYGPGGPGSSAAAAAAAASGPGGYGPENQGPSGPGGYGPGGPGSSAAAAAAAASGPGGYGPENQGPSGPGGYGPGGPGSSAAAAAAAASGPGGYGPENQGPSGPGGYGPGGPGSSAAAAAAAASGPGGYGPENQGPSGPGGYGPGGPGSSAAAAAAAASGPGGYGPENQGPSGPGGYGPGGPG
modifications: Synthetic spider silk C16 protein
Effect on the crystallization of metazachlor ([2]; in the presence of aqueous potassium phosphate buffer): significant inhibitiory effect
